Tests used:
[1] = test system: anti-fluorescein scFv on CAR T cells; assay: Competitive binding assay against FITC-Alexa647 on CAR T cells; conditions: 1 μM competing ligand versus FITC-Alexa647 10 nM
Procedure: To examine the ability of bridge molecules to bind anti-fluorescein scFv on CAR T cells, a competitive binding assay was developed. Measurement of the fluorescein signal from CAR T cell bound bridges could not be used due to the overlap of its fluorescence with that of the GFP expressing CAR T cells. For this purpose, FITC-Alexa647 (10 nM) was allowed to bind anti-fluorescein CAR T cells in the absence or presence of excess (1 μM) competing ligand (i.e. FITC-folate, FITC-DUPA, FITC-CA9) for 1 h at room temperature. After incubation, anti-fluorescein CAR T cells were washed 3× with PBS to remove unbounded FITC-Alexa647, and the washed cells were analyzed for Alexa647 fluorescence by flow cytometry.
Fluorescein-folate (FITC-folate) and fluorescein-PSMA (FITC-DUPA) were synthesized as previously described. To examine the ability of these bridge molecules to bind anti-fluorescein scFv on CAR T cells, a competitive binding assay had to be developed, because measurement of the fluorescein signal from CAR T cell bound bridge could not be used due to the overlap of its fluorescence with that of the GFP expressing CAR T cells. For this purpose, FITC-Alexa647 (10 nM) was allowed to bind anti-fluorescein CAR T cells in the absence or presence of excess (1 μM) competing ligand (i.e. FITC-folate) for 1 h at room temperature. After incubation, anti-fluorescein CAR T cells were washed 3× with PBS to remove unbounded FITC-Alexa647, and the washed cells were analyzed for Alexa647 fluorescence by flow cytometry. For analysis of FITC-folate to binding to folate receptor, FR positive KB cells were incubated with FITC-folate (100 nM) in the absence or presence of excess (10 μM) free folate (i.e. as a competitive ligand). After washing samples with PBS (3 times), samples were analyzed by flow cytometry for fluorescein-folate binding.

[2] = test system: PSMA+ MDA-MB-231 and CA9+ MDA-MB-231; assay: Two tumors treated with cocktail of bridge molecules in vivo (Example 42); parameters: species or system NSG mice; conditions: only one of the bridges infused
From the text: In order to evaluate whether a cocktail of bridge molecules can eliminate two tumors expressing orthogonal antigens, we established two different tumor models. As a first tumor model, each of PSMA+ MDA-MB-231 and CA9+ MDA-MB-231 were implanted into NSG mice at two different locations (i.e. right flank: CA9+ MDA-MB-231, left flank: PSMA+ MDA-MB-231). For the second tumor model, PSMA+ MDA-MB-231 and CA9+ MDA-MB-231 were pre-mixed at a 1:1 ratio and implanted at one location.
PSMA+ MDA-MB-231 and CA9+ MDA-MB-231 were implanted into NSG mice (Jackson Laboratory, ME) either at two different locations (i.e. right flank: PSMA+ MDA-MB-231, left flank: CA9+ MDA-MB-231) or one location after two tumor cells were pre-mixed (i.e. 50% of PSMA+ MDA-MB-231 and 50% of CA9+ MDA-MB-231). When tumors reached ˜100 mm3 in size, anti-fluorescein CAR T cells (8×10^6) were injected plus FITC-DUPA, FITC-CA9 or both. Tumors were measured every other day with calipers, and tumor volume was calculated according to the equation: Tumor volume=½(L×W2) where L is the longest axis of the tumor and W is the axis perpendicular to L. Results are shown in FIGS. 49A and 49B.

MDA-MB-231 tumors [3] = assay: Comparison of three rescue reagents (Example 32); conditions: for order of sCRS severity (from worst to least): 10 hours after rescue, Leucovorin 10, folic acid 10, sodium fluorescein 260 umol/kg; for tumor outcome of rescued mice: single rescue dose, EC17 continued
Procedure: To evaluate whether mice with FITC-CAR-T therapy related sCRS can be rescued by using competitors which may displace EC17 from either FITC-CAR-T or FR+ tumor cells, 49 NSG mice bearing MDA-MB-231 tumors (150-250 mm3) were administered with excess FITC-CAR-T cells (8 million), 36 of them were then dosed with 500 nmol/kg EC17 48 hours post CAR-T administration, 6 of them were not dosed with EC17 and were used as “No EC17” control, and 7 of them were dosed with 260 umol/kg sodium fluorescein (no EC17 but Fluorescein) to test its toxicity. […] Each group was i.v. injected with 10 umol/kg of Leucovorin, or 10 umol/kg folic acid, or 260 umol/kg sodium fluorescein, or nothing as an un-rescued control. […] Mouse body weight changes were also monitored as the indication of toxicity. […] To evaluate whether the rescue injections affect the anti-tumor activity of FITC-CAR-T cells, these mice were dosed with 500 nmol/kg EC17 twice per week (days 9, 11, 15, 18, 22, 25, etc.) and the tumor size was monitored.

MDA-MB-231 tumors [4] = assay: CAR-T number in blood after rescue with EC0923 or fluoresceinamine (Example 31); type: in vivo, NSG mice; conditions: for earliest time of increased CAR-T count in blood: 10 umol/kg i.v.; for CAR-T number in blood: 10 umol/kg i.v. at sCRS
Procedure: EC17/CAR-T therapy strategy is controllable through bridge displacement by either free folate or free fluorescein. […] Mice from three groups were then euthanized at 8, 12, 24 and 48 hours post injection of EC0923 or fluoresceinamine, and their blood samples were analyzed for CAR-T cell number and cytokine levels. CAR-T cells in blood were stained with anti-human CD45 antibody labeled with APCeF780 (Biolegend) and counted by FACS. CountBright™ Absolute Counting Beads (ThermoFisher Scientific) were mixed into the samples and used as a reference for cell counting.

[5] = test system: MDA-MB-231 solid tumor xenografts; type: in vivo
Procedure: MDA-MB-231 cells were subcutaneously injected into the shoulders of NSG mice (Jackson Laboratory) to establish solid tumor xenografts. When tumor volume reached around 50-100 mm^3, anti-FITC CAR T cells (15×10^6 cells) were intravenously introduced into tumor-bearing mice. Twenty NSG mice were divided into four study groups (5 animals in each group). The first group was treated with anti-FITC CAR T cells with phosphate-buffered saline (PBS) as a negative control. The second, third, and fourth groups were treated with anti-FITC CAR T cells with FITC-Folate (500 nmole/kg) every other day. Once a significant toxicity (e.g. serious loss of body weight) was detected, these groups were treated with either: continued FITC-Folate administration (second group); discontinuation of FITC-Folate administration until the mice recovered (third group); or a mixture of 100-fold excess of EC0923 (i.e. free folate) and FITC-Folate until the mice recovered (fourth group). The body weight was measured regularly to monitor toxicity. In addition, the blood concentration of interferon (IFN)-gamma for each treatment group was measured to monitor the degree of anti-FITC CAR T activation. Finally, tumor volume was measured to identify anti-tumor efficacy in each treatment group.

[6] = test system: severe cytokine release syndrome in mice bearing tumors; assay: Rescue ability of EC0923 during CAR T cell treatment (Example 18); type: in vivo
Procedure: CAR T cells were introduced into mice bearing tumors and EC17 was also introduced (i.v.) three times per week. When severe cytokine release syndrome was observed, one dose of EC0923 at 10 μmoles/kg was introduced to rescue mice. Mice were monitored for 4 more days, and some were euthanized to evaluate organs. Mice with one dose of EC0923 started to move and look for food after 4 hours, and their spleens and livers were red. Control mice without EC0923 didn't move after 6 hours, and their spleens and livers were pale. Mice with EC0923 treatment were active again in 24 hours and expected to survive, and were put back to a normal EC17 dosing schedule. Control mice without EC0923 started to move a little in 24 hours, but had to be euthanized to prevent animal suffering. Mice with EC0923 looked normal in 4 days. One of the mice was euthanized and found to have normal colored spleen and liver. […] Other remaining mice with EC0923 were given routine EC17 dosing three times per week, and their tumors disappeared in 4 weeks.

MDA-MB-231 tumors [7] = assay: Rescue ability of competitors during CAR T cell treatment (Example 23); type: in vivo, mice; conditions: for time until mice looked normal / time until mice started to move and look for food / time until mice were active again: one i.v. dose 10 μmoles/kg at sCRS
Procedure: When severe cytokine release syndrome was observed, one dose of EC0923 (folate) or untethered fluorescein (both at 10 μmoles/kg) was introduced intravenously to rescue mice (FIG. 16). Mice with one dose of EC0923 or fluorescein started to move and look for food after 4 hours, were active again in 24 hours, and looked normal in 4 days. EC17 administration was then continued. Control mice without EC0923 or fluorescein didn't move after 4 hours, and had to be euthanized because of the sickness. […] All mice tested for cytokine production were injected with 8 million CAR-T cells.

MDA-MB-231 = assay: Effect of Folate-FITC on CAR-T cell number and serum cytokines (Example 21); type: in vivo, NSG mice; conditions: 500 nmole/kg, 10^7 CAR T cells, Day 6
Procedure: The triple negative human breast cancer cell line (i.e. MDA-MB-231) was subcutaneously implanted into the shoulders of immunodeficient (e.g. NSG) mice. When tumor volume reached around 50-100 mm^3, anti-FITC CAR T cells (10^7 cells) were intravenously introduced with either FITC-folate (500 nmole/kg) or PBS. To monitor CAR T cell proliferation and pro-inflammatory cytokine production, mice blood was collected at Day 6. CAR T cell proliferation was evaluated by staining a whole blood sample with anti-human CD3 antibody (Biolegned) and detecting GFP expression on the CD3 positive T cell population. Pro-inflammatory cytokine production was measured by a bead-based immunoassay (Legendplex kit from biolegend).

MDA-MB-231 cells = assay: Control of CRS with bridge molecules in vivo (Example 43); parameters: species or system NSG mice
Procedure: Mice were maintained on folic acid-deficient diet (TD.95247, Envigo) in order to reduce the level of folic acid in mice to a physiological levels found in humans. Tumors were measured every other day with calipers, and tumor volume was calculated according to equation: Tumor volume=½(L×W^2) where L is the longest axis of the tumor and W is the axis perpendicular to L. Mouse blood was also collected to measure cytokine levels (e.g. IL-2, IL-6, IFNγ, and TNFα) using LEGENDplex bead-based immunoassay (Biolegend, CA) and systemic toxicity was monitored by measuring body weight loss. All animal care and use followed by National Institutes of Health (NIH) guidelines and all experimental protocols were approved by the Purdue Animal Care and Use Committee.

[8] = test system: MDA-MB-231 solid tumor xenografts; assay: Control of CAR T cell activation in vivo: break, FA competitor or both (Example 19)
Procedure: Five study groups were designed to test whether anti-FITC CAR T cell activation can be controlled via temporal termination of FITC-ligands, by administering a competitor small molecule, or a combination approach of both discontinuing of FITC-ligands and/or administering an FA competitor. The first group was treated by administering anti-FITC CAR T cell with phosphate-buffered saline (PBS) as a negative control. Every other day over the course of the study, the second, third, fourth and fifth groups were treated with anti-FITC CAR T cell mixed with FITC-Folate (500 nmole/kg). […] Mouse bodyweight was measured regularly to test for toxicity.

[9] = 100-fold excess on days 4 and 6
[10] = within 3 hours, 6 μmole/kg free fluorescein

O=C(O)CC[C@H](NC(=O)N[C@@H](CCC(=O)NCCCCCCCC(=O)N[C@@H](Cc1ccccc1)C(=O)N[C@@H](Cc1ccccc1)C(=O)NCCNC(=S)Nc1ccc(-c2c3ccc(=O)cc-3oc3cc(O)ccc23)c(C(=O)O)c1)C(=O)O)C(=O)O [FITC-DUPA]
binding to CAR-expressing T cells [1]: able to bind to the CAR-expressing T cells | growth of tumor expressing unmatched antigen [2]: continuously grew

Nc1nc2c(c(=O)[nH]1)N(C=O)C(CNc1ccc(C(=O)N[C@@H](CCC(=O)O)C(=O)O)cc1)CN2 (some centres unmarked) [Leucovorin]
order of sCRS severity (from worst to least) (MDA-MB-231 tumors [3]): no rescue group>leucovorin rescue group>folic acid rescue group>sodium fluorescein rescue group>no EC17 group | tumor outcome of rescued mice (MDA-MB-231 tumors [3]): complete response

FITC-PEG2-CA9 [FITC-CA9]
binding to CAR-expressing T cells [1]: able to bind to the CAR-expressing T cells | growth of tumor expressing unmatched antigen [2]: continuously grew

Nc1nc2ncc(CNc3ccc(C(=O)N[C@@H](CCCN[C@H](CC(=O)O)C(=O)N[C@H](CC(=O)O)C(=O)O)C(=O)O)cc3)nc2c(=O)[nH]1 [EC0923]
earliest time of increased CAR-T count in blood (MDA-MB-231 tumors [4]): 6 h | CAR-T number in blood (MDA-MB-231 tumors [4]): increase of CAR-T number in blood circulation | complete response ([5]; competitor group (100-fold excess EC0923 + FITC-Folate)): 75% | time until mice looked normal ([6]; one dose 10 μmoles/kg at sCRS): 4 days | time until mice started to move and look for food ([6]; one dose 10 μmoles/kg at sCRS): 4 h | time until mice were active again ([6]; one dose 10 μmoles/kg at sCRS): 24 h | time until tumors disappeared ([6]; rescued mice, routine EC17 dosing three times per week resumed): 4 weeks | time until mice looked normal (MDA-MB-231 tumors [7]): 4 days | time until mice started to move and look for food (MDA-MB-231 tumors [7]): 4 h | time until mice were active again (MDA-MB-231 tumors [7]): 24 h | tumor outcome four weeks later (MDA-MB-231 tumors [7]; rescue treatment, EC17 continued): tumors were eliminated

FITC-Folate [EC17]
anti-FITC CAR T cell proliferation in blood (MDA-MB-231): proliferated significantly | pro-inflammatory cytokines (IL-2, TNF-α, IFN-γ) (MDA-MB-231): significantly produced

Nc1nc2ncc(CNc3ccc(C(=O)N[C@@H](CCC(=O)O)C(=O)O)cc3)nc2c(=O)[nH]1 [folic acid, reference compound]
IFNγ level (MDA-MB-231 cells; [9]): reduced the level of IFNγ | body weight (MDA-MB-231 cells; [9]): rapidly prevented the continuous weight loss | therapeutic potency of CAR T cell therapy (MDA-MB-231 cells; [9]): enhanced the therapeutic potency | order of sCRS severity (from worst to least) (MDA-MB-231 tumors [3]): no rescue group>leucovorin rescue group>folic acid rescue group>sodium fluorescein rescue group>no EC17 group | tumor outcome of rescued mice (MDA-MB-231 tumors [3]): complete response

Nc1nc(=O)c2nc(CNc3ccc(C(=O)N[C@@H](CCC(=O)O)C(=O)O)cc3)cnc2[nH]1 [EC0923]
control of CAR T cell mediated toxicity ([8]; 100-fold excess with FITC-Folate (FITC-Folate+FA Competitor)): able to control the degree of CAR T cell activation to alleviate CAR T cell mediated toxicity | control of CAR T cell mediated toxicity ([8]; termination of FITC-Folate plus excess free folic acid (Break+FA Competitor)): better efficacy in decreasing CAR T cell mediated toxicity compared to each approach alone | IFN-gamma blood concentration ([5]; competitor group): decreased | survival of mice at the first week of treatment ([5]; competitor group: 100-fold excess of free folate mixed with FITC-Folate at day 4 and day 6): all of the mice in both the break and competitor groups survived

Nc1ccc2c(c1)C(=O)OC21c2ccc(O)cc2Oc2cc(O)ccc21 [fluoresceinamine]
CAR-T displacement compared with EC0923 (MDA-MB-231 tumors [4]; 10 umol/kg): more CAR-T displacement than folate | earliest time of increased CAR-T count in blood (MDA-MB-231 tumors [4]): 6 h | CAR-T number in blood (MDA-MB-231 tumors [4]): increase of CAR-T number in blood circulation

O=C1OC2(c3ccc(O)cc3Oc3cc(O)ccc32)c2ccccc21 [fluorescein, reference compound]
time to decrement of plasma IFNγ (MDA-MB-231 cells; post fluorescein injection): 6 h | decrease of plasma IL-2 (MDA-MB-231 cells; [10]): > 50% | decrease of plasma IL-6 (MDA-MB-231 cells; [10]): > 50% | decrease of plasma TNF-α (MDA-MB-231 cells; [10]): > 50% | time until mice looked normal (MDA-MB-231 tumors [7]): 4 days | time until mice started to move and look for food (MDA-MB-231 tumors [7]): 4 h | time until mice were active again (MDA-MB-231 tumors [7]): 24 h
